Experimental findings from patent US4968686A, “Acyclic pyrrolo [2,3-d]pyrimidine analogs as antiviral agents” (The Regents of The University of Michigan, priority 1989, dated 1990) are described below.

pIC50: −log10 of the molar value. Read-outs that look alike come from different tables or passages of the source.

Experiment [1] concerns HSV-1. The experiment can be described thus: HSV-1 plaque reduction assay, strain S148. The experiment is classed as cell-based, herpes simplex virus type 1 (strain S148) in BSC-1 cells. The settings on record: for pIC50: Human alphaherpesvirus 1, Table 1, strain S148, BSC-1 cells, read-out: 50% Inhibitory Concentration HSV-1 Plaque. The source says: (§1) The 148 strain of HSV-1 was used in most experiments and was provided by Dr. T. W. Schafer of Schering corporation. The HF strain of HSV-1 was used in selected experiments and was obtained from Dr. G. H. Cohen, University of Pennsylvania. The Towne strain, plaque-purified isolate Po, of HCMV was a gift of Dr. Mark Stinski, University of Iowa.
(§2) HSV-1 was titered using monolayer cultures of BSC-1 cells. Cells were planted at 3×10^5 cells/well using 6-well cluster dishes. MEM(E) supplemented with 10% fetal bovine serum was employed as medium. After 22-24 hours, cells were 90% confluent and were inoculated in triplicate using at least three ten-fold dilutions with 0.2 ml of the virus suspension to be assayed and incubated in a humidified 4% CO2 […] atmosphere for one hour to permit viral adsorption. Following virus adsorption, the cell sheet was overlayed with 5 ml of MEM(E) with 5% serum plus 0.5% methocel (4000 CPS) and incubated an additional two to three days. Cells were fixed and stained with 0.1% crystal violet in 20% methanol and macroscopic plaques enumerated.
(§3) Plaque reduction experiments were HSV-1 were performed using monolayer cultures of BSC-1 cells. The assay was performed exactly as described above except that the 0.2 ml virus suspension contained approximately 100 p.f.u. of HSV-1. Compounds to be tested were dissolved in the overlay medium at concentrations usually ranging from 0.1 to 100 μM in half-or-one logarithm10 dilutions. Titer reduction assays were performed by planting KB cells in 25 cm^2 plastic tissue culture flasks 10 to 24 hours prior to infection. At the onset of experiments, logarithmically growing replicate monolayer cultures were 60 to 80% confluent and contained 2.5 to 4.5×10^6 cells/flask. Medium was decanted and the cultures were infected with 2 to 10 p.f.u. of HSV-1 per cell. Virus was contained in 1.0 ml of VGM supplemented with 5% fetal bovine serum. After a 1 hour adsorption period at […], the cell sheet was rinsed twice with 2 ml of VGM without serum to remove unadsorbed virus and 5 ml of VGM containing drugs at three to five selected concentrations added in duplicate. Following an 18- to 22-hour incubation at 37° C., infected monolayers were treated with EDTA-trypsin to suspend the cells; aliquots were removed, subjected to three cycles of freezing and thawing, and stored at -76° C. for subsequent virus assay. Virus was titered on BSC-1 cells as described above.
(§4) Dose-response relationships were used to compare drug effects. These were constructed by linearly regressing the percent inhibition of parameters derived in the preceding sections against log drug concentrations. The 50% inhibitory (I50) concentrations were calculated from the regression lines using the methods described by Goldstein. See Goldstein, A., Biostatistics: An Introductory Text, MacMillan, N.Y., 1964, pp. 156-161. Along with the I50 concentration for visual cytotoxicity, the averaged I50 concentrations are compared to I50 concentrations for inhibition for HCMV or HSV-1 replication. Compounds for which the ratio of cytotoxicity I50 concentrations to antiviral I50 concentrations (in vitro therapeutic index) were greater than 10, were considered for further study.

Experiment [2] concerns HSV-1. The experiment can be described thus: HSV-1 titer (yield) reduction assay. The settings on record: read-out: HSV-1 Yield, 90% inhibitory concentration (I90). The experiment is classed as cell-based, herpes simplex virus type 1 in KB cells.
Text: as §1, §2, §3
Drug effects were calculated as a percentage of the reduction in virus titers in the presence of each drug concentration compared to the titer obtained in the absence of drug. Acylovir was used as a positive control in all experiments.
as §4

The next experiment concerns KB cells. The experiment can be described thus: cells. The experiment is classed as cell-based, human. The settings on record: Homo sapiens; [3H]dThd incorporation, KB cells; read-out: I50 on [3H]dThd incorporation. How it is done:
KB or HFF cells were planted using a Costar Transplate-96 (Costar, Cambridge, Mass.) in Costar 96-well cluster dishes at a concentration of 10,000 to 12,000 cells per well. Wells were suspended in 200 μl of medium [MDM(H) plus 0.7 gm/liter NaCHO3 supplemented with 10% calf serum] per well. After incubation of 16 to 24 hours at 37° C. in a humidified atmosphere of 4% CO2 in air, […] of medium was removed per well. One-hundred μl of medium with or without compounds in twice their final concentrations was added to each well using a Titertek Multichannel Pipette. Final concentrations of compounds ranged from 0.1 to 320 μM. Fifty μl of medium containing radioactive precursors also was added to each well to give a final concentration to 1 to 3 μCi/ml of labeled precursor. [^3 H]Thd was diluted with unlabeled dThd to give a final concentration of 3 or 6 μM.
Logarithmic cell growth occurred during this time with continual uptake of labeled precursors. At the end of the incubation period, cells were individually harvested from each well using a Skatron Cell harvester (Skatronh, Inc., Sterling, Va.). Cultures for individual wells were harvested onto filter paper and washed free of unincorporated label with nine sequential washes with 5% trichloroacetic acid, nine washes with water, and nine with ethanol using the Skatron unit. Filters were dried, circles from individual cultures were punched from the filter mat and placed into mini-vials. Liquid scintillation solution was added, and radioactivity determined in a Beckman model LS8100 liquid scintillation spectrometer. All samples were counted for 2.0 minutes each, with three rounds of counting. Counts per minute were determined following the application of statistical methods to eliminate count rates which fell outside distribution limits defined by Chauvenet's rejection criterion.
All analyses were performed in triplicate. That is, three culture wells were used per time point, radioactive precursor, and drug concentration in all experiments. Results from triplicate assays were converted to percent of control and plotted as log dose-response curves from which 50% inhibitor (I50) concentrations were interpolated. Three concentrations of vidarabine were included on all plates as a positive control.
as §4

In a further experiment the test system is HFF cells. The experiment can be described thus: Growth of HFF cells. Type of experiment: cell-based, human. The settings on record: for HFF population doublings in 70 hours: 100 μM, control two doublings. How it is done:
Population doubling times and cell viability were measured in uninfected HFF and/or KB cells. Cells were planted in replicate 6-well plastic tissue culture dishes or in 25 cm^2 flasks as described above in part 1. Following an incubation period during which cells attached to the substrate, medium was decanted, the cell sheet rinsed once with HBS, and fresh medium added. The medium consisted of MEM(E) with 1.1 gm NaHCO3 /liter and 10% fetal bovine or calf serum plus appropriate log or half-log concentrations of drug. After additional periods of incubation from 1 to 72 hours at 37° C., cells were harvested by means of 0.05% trypsin plus 0.02% EDTA in a HEPES-buffered salt solution. Cells were enumerated using either a Coulter counter or a hemocytometer and viability determining using trypsan blue dye exclusion.
The effect of these compounds on the growth of human diploid fibroblasts (HFF cells) was less pronounced. During a 70-hour incubation, control cells underwent two doublings. […] A 100 μM concentration reduced the number of cells by less than 10%.

For a further experiment, the system named is HSV-1 HF strain. The experiment can be described thus: HSV-1 reduction assay, HF strain. Particulars: Human alphaherpesvirus 1; read-out: I50 with HF strain of HSV-1. The experiment is classed as cell-based, herpes simplex virus type 1 (HF strain).
Text: as §1, §2, §3
Dose-response relationships were used to compare drug effects. These were constructed by linearly regressing the percent inhibition of parameters derived in the preceding sections against log drug concentrations. The 50% inhibitory (I50) concentrations were calculated from the regression lines using the methods described by Goldstein. […]

[3] abbreviates: Human alphaherpesvirus 1, Table 1, I90, strain S148, KB cells.

As for `Nc1ncnc2c1c(Br)cn2COC(CO)CO` [UMJD 183, 4-amino-5-bromo-7-[(1,3-dihydroxy-2-propoxy)methyl]-pyrrolo[2,3-d]pyrimidine], the pIC50 in the experiment on HSV-1 [1] was 5.70. Besides, the IC90 with HSV-1 [2] (setting [3]) amounted to 17 µM.

Consider `Nc1ncnc2c1c(Cl)cn2COC(CO)CO` [UMJD 186, 4-amino-5-chloro-7-[(1,3-dihydroxy-2-propoxy)-methyl]pyrrolo[2,3-d]pyrimidine], for which the pIC50 in the experiment with HSV-1 [1] is 4.80; in the experiment with KB cells it was 4.55. In addition, the IC90 in the experiment on HSV-1 [2] (setting [3]) turned out to be 3.5 µM.

In the case of `Nc1ncnc2c1c(I)cn2COCCO` [UMJD 104, 4-Amino-5-iodo-7-(2-hydroxyethoxymethyl)pyrrolo[2,3-d]-pyrimidine], the “activity against HSV-1 (in words)” value with HSV-1 [1] is “less potent activity”. Besides, the results for the pIC50 in the experiment on HSV-1 [1], in the experiment on KB cells and with HSV-1 HF strain were 3.60, 5.92 and 4.27, respectively. For the same compound, in the experiment with HSV-1 [2] (setting [3]), the IC90 was more than 100 µM. Besides, the “effect on growth of HFF cells relative to UMJD 100 (in words)” value with HFF cells is “more pronounced”. In addition, the “HFF population doublings in 70 hours” value in the experiment with HFF cells (70 hours) is “one population doubling”.

With `Nc1ncnc2c1c(Br)cn2COCCO` [UMJD 102, 4-Amino-5-bromo-7-(2-hydroxyethoxymethyl)pyrrolo[2,3-d]-pyrimidine], the “activity against HSV-1 (in words)” value in the experiment with HSV-1 [1] is “less potent activity”. Moreover, the pIC50 in the experiment with HSV-1 [1] is 4.96; in the experiment with KB cells, 6.89; with HSV-1 HF strain it was 4.55. Further, in the experiment on HSV-1 [2] (setting [3]), the IC90 was determined as 30 µM. Also, in the experiment with HFF cells, the “effect on growth of HFF cells relative to UMJD 100 (in words)” value is “more pronounced”. Besides, the “HFF population doublings in 70 hours” value in the experiment with HFF cells (70 hours) is given as “one population doubling”.

Take `Nc1nc2c(ncn2COCCO)c(=O)[nH]1` [Acyclovir, reference compound]: the results for the pIC50 with HSV-1 [1] and in the experiment with HSV-1 HF strain were 5.40 and 4.44, respectively. In the experiment on HSV-1 [2] (setting [3]), the IC90 was 7 µM.

As to `Nc1ncnc2c1c(Cl)cn2COCCO` [UMJD 100, 4-Amino-5-chloro-7-(2-hydroxyethoxymethyl)pyrrolo[2,3-d]-pyrimidine], the “activity against HSV-1 (in words)” value in the experiment on HSV-1 [1] is listed as “less potent activity”. Also, the values for the pIC50 with HSV-1 [1], in the experiment with KB cells and in the experiment with HSV-1 HF strain were 4.11, 6.09 and less than 4.00, respectively. The IC90 in the experiment on HSV-1 [2] (setting [3]) is 50 µM. Moreover, the “effect on number of HFF cells present at 70 hours (in words)” value with HFF cells (10 or 32 μM, 70 hours) is given as “no decrease in the number of cells”.

On to `Nc1nc(O)c2ncn(COC(CO)CO)c2n1` [Ganciclovir (DHPG), reference compound], for which the pIC50 in the experiment with HSV-1 [1] is 5.35. Also, the IC90 in the experiment with HSV-1 [2] (Human alphaherpesvirus 1, KB) was 1.2 µM.

Turning to `OCC(CO)OCn1cc(Br)c2c(NO)ncnc21` [UMJD 299, 4-hydroxylamino-5-bromo-7-[(1,3-dihydroxy-2-propoxy)methyl]pyrrolo[2,3-d]pyrimidine], the pIC50 in the experiment on HSV-1 [1] was 5.54. For the same compound, the IC90 in the experiment on HSV-1 [2] (setting [3]) was more than 100 µM.
